Measurements reported in patent US20230072860A1, “ISOXAZOLINE OXIME FORMATE COMPOUND, PREPARATION METHOD THEREFOR, HERBICIDAL COMPOSITION AND USE THEREOF” (QINGDAO KINGAGROOT CHEMICAL COMPOUND CO., LTD., priority 2020, published 2023).

Columns and labels:
Test in all cases: Experiment on weeding effect in post-emergence stage
Assay type in all cases: in vivo
Details in all cases: dose 15 g a.i./ha, fresh weight control rate level
Abutilon theophrasti = test system: Abutilon theophrasti
Description: (§1) Experiment on weeding effect in post-emergence stage:
(§2) Monocotyledonous and dicotyledonous weed seeds (Descurainia sophia, Capsella bursa-pastoris, Abutilon theophrasti, Galium aparine, Stellaria media, Lithospermum arvense, Rorippa indica, Alopecurus aequalis, Alopecurus japonicus, Beckmannia syzigachne, Sclerochloa dura, Conyza Canadensis, Phleum paniculatum, Veronica didyma Tenore, Eleusine indica, Bromus japonicus, Aegilops tauschii, Phalaris arundinacea, Amaranthus retroflexus, Chenopodium album, Commelina communis, Sonchus arvensis, Convolvulus arvensis, Cirsium setosum, Solanum nigrum, Acalypha australis, Digitaria sanguinalis, Echinochloa crusgalli, Setaria viridis, Setaria glauca, Leptochloa chinensis, Monochoria vaginalis, Sagittaria trolia, Scirpus juncoides, Cyperus rotundus, Cyperus iria, Cyperus difformis, Elmbristylis, Portulaca oleracea, Xanthium sibiricum, Pharbitis nil) and major crop seeds (wheat, corn, rice, soybean, cotton, oilseed rape, millet, sorghum, potato, sesame, ricinus) were placed in plastic pots filled with soil, then covered with 0.5-2 cm of soil, allowed to grow in a good greenhouse environment. After 2 weeks of sowing, the test plants were treated in the 2-3 leaf stage. The tested compounds of the present invention were respectively dissolved in acetone, then added with Tween 80 and 1.5 liter/ha of emulsifiable concentrate of methyl oleate as synergist, diluted with a certain amount of water to obtain a solution with a certain concentration, and sprayed with a spray tower onto the plants. After the application, the plants were cultured for 3 weeks in the greenhouse, and then the experimental results of the weeding were counted. The doses of the used compounds were 500, 250, 125, 60, 15 g a.i./ha, and the averages were obtained by repeating for three times.

Amaranthus retroflexus = test system: Amaranthus retroflexus
Description: as §1, §2

Digitaria sanguinalis = test system: Digitaria sanguinalis
Description: as §1, §2

Echinochloa crusgalli = test system: Echinochloa crusgalli
Description: as §1, §2

Eleusine indica = test system: Eleusine indica
Description: as §1, §2

Galium aparine = test system: Galium aparine
Description: as §1, §2

Leptochloa chinensis = test system: Leptochloa chinensis
Description: as §1, §2

Setaria viridis = test system: Setaria viridis
Description: as §1, §2

Veronica didyma Tenore = test system: Veronica didyma Tenore
Description: as §1, §2

Row | SMILES | weeding effect in post-emergence stage, Abutilon theophrasti (level) (Abutilon theophrasti) | weeding effect in post-emergence stage, Amaranthus retroflexus (level) (Amaranthus retroflexus) | weeding effect in post-emergence stage, Digitaria sanguinalis (level) (Digitaria sanguinalis) | weeding effect in post-emergence stage, Echinochloa crusgalli (level) (Echinochloa crusgalli) | weeding effect in post-emergence stage, Eleusine indica (level) (Eleusine indica) | weeding effect in post-emergence stage, Galium aparine (level) (Galium aparine) | weeding effect in post-emergence stage, Leptochloa chinensis (level) (Leptochloa chinensis) | weeding effect in post-emergence stage, Setaria viridis (level) (Setaria viridis) | weeding effect in post-emergence stage, Veronica didyma Tenore (level) (Veronica didyma Tenore)
1 | COCC(C)=NOC(=O)C1(C)CC(c2cc(-n3c(=O)n(C)c(=S)n(C)c3=O)c(F)cc2Cl)=NO1 (mixture of isomers) [Compound 121] | 5 (Level 5: growth control rate is above 85%) | 5 (Level 5: growth control rate is above 85%) | 5 (Level 5: growth control rate is above 85%) | 5 (Level 5: growth control rate is above 85%) | 5 (Level 5: growth control rate is above 85%) | 5 (Level 5: growth control rate is above 85%) | 5 (Level 5: growth control rate is above 85%) | 5 (Level 5: growth control rate is above 85%) | 5 (Level 5: growth control rate is above 85%)
2 | CC(C)=NOC(=O)C1(C)CC(c2nc(-n3c(=O)n(C)c(=S)n(C)c3=O)c(F)cc2Cl)=NO1 (racemic) [Compound 16] | 5 (Level 5: growth control rate is above 85%) | 5 (Level 5: growth control rate is above 85%) | 5 (Level 5: growth control rate is above 85%) | 5 (Level 5: growth control rate is above 85%) | 5 (Level 5: growth control rate is above 85%) | 5 (Level 5: growth control rate is above 85%) | 5 (Level 5: growth control rate is above 85%) | 5 (Level 5: growth control rate is above 85%) | 5 (Level 5: growth control rate is above 85%)
3 | CCC(CC)=NOC(=O)C1(C)CC(c2cc(-n3c(=O)n(C)c(=S)n(C)c3=O)c(F)cc2Cl)=NO1 (racemic) [Compound 83] | 5 (Level 5: growth control rate is above 85%) | 5 (Level 5: growth control rate is above 85%) | 5 (Level 5: growth control rate is above 85%) | 5 (Level 5: growth control rate is above 85%) | 5 (Level 5: growth control rate is above 85%) | 5 (Level 5: growth control rate is above 85%) | 5 (Level 5: growth control rate is above 85%) | 5 (Level 5: growth control rate is above 85%) | 5 (Level 5: growth control rate is above 85%)
4 | CC(C)=NOC(=O)C1(C)CC(c2cc(-n3c(=O)n(C)c(=S)n(C)c3=O)c(F)cc2Cl)=NO1 (stereo not drawn) [Compound 10] | 5 (Level 5: growth control rate is above 85%) | 5 (Level 5: growth control rate is above 85%) | 5 (Level 5: growth control rate is above 85%) | 5 (Level 5: growth control rate is above 85%) | 5 (Level 5: growth control rate is above 85%) | 5 (Level 5: growth control rate is above 85%) | 5 (Level 5: growth control rate is above 85%) | 5 (Level 5: growth control rate is above 85%) | 5 (Level 5: growth control rate is above 85%)
5 | C/C=N/OC(=O)C1(C)CC(c2cc(-n3c(=O)n(C)c(=S)n(C)c3=S)c(F)cc2Cl)=NO1 (stereo not drawn) [Compound 54] | 5 (Level 5: growth control rate is above 85%) | 5 (Level 5: growth control rate is above 85%) | 5 (Level 5: growth control rate is above 85%) | 5 (Level 5: growth control rate is above 85%) | 5 (Level 5: growth control rate is above 85%) | 5 (Level 5: growth control rate is above 85%) | 5 (Level 5: growth control rate is above 85%) | 5 (Level 5: growth control rate is above 85%) | 5 (Level 5: growth control rate is above 85%)
6 | CC(C)=NOC(=O)C1(C)CC(c2cc(-n3c(=O)n(C)c(=S)n(C)c3=S)c(F)cc2Cl)=NO1 (stereo not drawn) [Compound 56] | 5 (Level 5: growth control rate is above 85%) | 5 (Level 5: growth control rate is above 85%) | 5 (Level 5: growth control rate is above 85%) | 5 (Level 5: growth control rate is above 85%) | 5 (Level 5: growth control rate is above 85%) | 5 (Level 5: growth control rate is above 85%) | 5 (Level 5: growth control rate is above 85%) | 5 (Level 5: growth control rate is above 85%) | 5 (Level 5: growth control rate is above 85%)
7 | CC/C(C)=N/OC(=O)C1(C)CC(c2cc(-n3c(=O)n(C)c(=S)n(C)c3=S)c(F)cc2Cl)=NO1 (stereo not drawn) [Compound 57] | 5 (Level 5: growth control rate is above 85%) | 5 (Level 5: growth control rate is above 85%) | 5 (Level 5: growth control rate is above 85%) | 5 (Level 5: growth control rate is above 85%) | 5 (Level 5: growth control rate is above 85%) | 5 (Level 5: growth control rate is above 85%) | 5 (Level 5: growth control rate is above 85%) | 5 (Level 5: growth control rate is above 85%) | 5 (Level 5: growth control rate is above 85%)
8 | C/C(=N\OC(=O)C1(C)CC(c2cc(-n3c(=O)n(C)c(=S)n(C)c3=S)c(F)cc2Cl)=NO1)C(C)C (stereo not drawn) [Compound 58] | 5 (Level 5: growth control rate is above 85%) | 5 (Level 5: growth control rate is above 85%) | 5 (Level 5: growth control rate is above 85%) | 5 (Level 5: growth control rate is above 85%) | 5 (Level 5: growth control rate is above 85%) | 5 (Level 5: growth control rate is above 85%) | 5 (Level 5: growth control rate is above 85%) | 5 (Level 5: growth control rate is above 85%) | 5 (Level 5: growth control rate is above 85%)
9 | C/C(=N\OC(=O)C1(C)CC(c2cc(-n3c(=O)n(C)c(=S)n(C)c3=S)c(F)cc2Cl)=NO1)C(C)(C)C (stereo not drawn) [Compound 59] | 5 (Level 5: growth control rate is above 85%) | 5 (Level 5: growth control rate is above 85%) | 5 (Level 5: growth control rate is above 85%) | 5 (Level 5: growth control rate is above 85%) | 5 (Level 5: growth control rate is above 85%) | 5 (Level 5: growth control rate is above 85%) | 5 (Level 5: growth control rate is above 85%) | 5 (Level 5: growth control rate is above 85%) | 5 (Level 5: growth control rate is above 85%)
